Measurements published in paper PMC11284787, “Ligand-Directed Labeling of the Adenosine A1 Receptor in Living Cells” (Journal of Medicinal Chemistry, 2024).

Tests used:
[1] = Fluorescence correlation spectroscopy in solution (HBSS); format: physicochemical
Protocol: The suitability of probe 11 for use with FCS was initially tested by recording 10 × 10 s trace reads in solution (100 nM in HBSS) (Figure S4). […] A 488 nm […] laser was used to excite SNAP-AF488 and the emission […] The pinhole diameter (1 Airy Unit; 1.1 μm optical slice), laser power and gain was kept constant in all the experiments. Images were acquired as 16-bit depth, 1024x1024 pixel resolution with a line averaging of 8 (or 2) and a pixel dwell time 4.12 µs (set to 5). Images were either processed in Zeiss ZEN 2 (blue edition) or FIJI (ImageJ) version 2.0.0 software, and linear adjustments to the brightness and contrast have been applied equally across all the images. To obtain membrane intensity values, regions of interest were drawn by hand around regions of cell membranes in FIJI (ImageJ)10 version 2.0.0 software. Fluorescence Correlation Spectroscopy. […] After that time, cells were washed 3x with warm HBSS over the course of 20 min, followed by the addition of 300 µL HBSS, left to cool to 24 OC and used in Fluorescence Correlation Spectroscopy (FCS) studies. […] For solution-based reads 10 x 10s trace measurements were taken within 200 µL sample with the confocal observation volume placed 200 µm above the coverslip. For apical membrane reads, 3 x 30s trace measurements at ~0.5 kW/cm2 laser power were taken on the apical membrane with its position determined as the peak of a point intensity S9 page 10: Z-scan utilising an argon 488 nm laser excitation, at ~0.5kW/cm2 laser power, detecting […] The placement was lowered by 0.2 µm to account for the optical chromatic offset between the 488 nm and 633 nm detection previously determined for our microscope set-up. Autocorrelation curves (AC) were constructed from fluorescence fluctuation traces and analysed within Zen Black (2012) software. […] Fluorescence fluctuation traces were reanalysed with Photon Counting Histogram analysis to determine the average molecular brightness of detected species. […]

[2] = test system: nontransfected HEK293 cells; assay: Confocal assessment of non-specific labelling in non-transfected HEK293T cells; format: cell-based, human; conditions: 125 nM; cells do not express the A1AR
Text: Having investigated the molecular pharmacology of 11 and 12 in a series of in vitro assays, we sought to apply the LD probes for studying A1AR localization and dynamics in living cells. To this end, LD probes 11 and 12 were initially used in confocal microscopy studies to test their ability to label and allow visualization of the SNAP-hA1AR in living HEK293T cells (Figure 6). […] With both probes, the fluorescence labeling colocalized with SNAP-hA1AR labeled with AF488 (Figure 6A,C top frames).
Supplementary Figures: Pharmacology
Figure S1. Fluorescence spectra of SulfoCy5-conjugated methyltetrazine in the absence or in the presence of probe 12 (PEG-TCO). “Turn-on” type reaction of tetrazine (Met-TetSulfoCy5) with PEGylated trans-cyclooctene (PEG-TCO)-labelled 12. Fluorescence excitation and emission spectra measured in HBSS with the corresponding tetrazineSulfoCy5 [100 nM] without, then with 12 (PEG-TCO) [1 µM] (allowed to react for 10 min prior detection). Exc maxima (Met-TetSulfoCy5 + PEG-TCO) = 1.80-fold increase compared to Met-TetSulfoCy5 alone; Em maxima (Met-TetSulfoCy5 + TCO) = 1.40-fold; Excitation and emission fluorescence spectra (1 nm step width) were measured were recorded on a CLARIOstar plate reader (BMG Labtech).
Figure S2. Assessment of 11 non-specific labelling performed in non-transfected live HEK293T cells. Left hand frame corresponds to SulfoCy5 channel. […]

[3] = molecular target: T1, NL-hA2BAR (Homo sapiens, UniProt P29275); assay: NanoBRET competition ligand-binding assay (CA200645 tracer), NL-hA2BAR; conditions: CA200645 (25 nM) tracer, HEK293T cells, mean ± SEM; read-out: affinity values pKi, NL-hA2BAR (converted)
T1 construct: expressed in transfected cells
T1 sequence (P29275 1-332): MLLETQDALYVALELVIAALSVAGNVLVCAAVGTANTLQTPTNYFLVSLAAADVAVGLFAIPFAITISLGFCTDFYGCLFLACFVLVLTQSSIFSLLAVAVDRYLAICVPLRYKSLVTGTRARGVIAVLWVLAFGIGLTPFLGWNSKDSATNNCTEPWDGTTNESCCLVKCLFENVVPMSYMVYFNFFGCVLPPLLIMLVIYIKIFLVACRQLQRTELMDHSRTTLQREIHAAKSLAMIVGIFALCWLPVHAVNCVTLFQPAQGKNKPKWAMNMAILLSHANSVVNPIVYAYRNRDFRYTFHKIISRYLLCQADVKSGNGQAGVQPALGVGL

SMILES | dwell time in solution (FCS, 3D diffusion model) ([1]; 100 nM in HBSS) [μs] | diffusion coefficient, D, in solution ([1]; 100 nM in HBSS, calibrated with Cy5) [μm^2/s] | PCH analysis, state in solution ([1]; 1-component fit, HBSS) | fluorescent signal in nontransfected HEK293 cells [2] | Ki [3] [nM]
CCCCn1c(=O)c2[nH]c(C34CCC(C(=O)NCCNC(=O)CCNC(=O)c5ccc(OC(=O)CCCCC[N+]6=C(/C=C/C=C/C=C7/N(C)c8ccc(S(=O)(=O)O)cc8C7(C)C)C(C)(C)c7cc(S(=O)(=O)[O-])ccc76)c(F)c5)(CC3)CC4)nc2n(CCCC)c1=O [Compound 11, 1-(6-(4-((3-((2-(4-(1,3-Dibutyl-2,6-dioxo-2,3,6,7-tetrahydro-1H-purin-8-yl)bicyclo[2.2.2]octane-1-carboxamido)ethyl)amino)-3-oxopropyl)carbamoyl)-2-fluorophenoxy)-6-oxohexyl)-3,3-dimethyl-2-((1E,3E)-5-((E)-1,3,3-trimethyl-5-sulfoindolin-2-ylidene)penta-1,3-dien-1-yl)-3H-indol-1-ium-5-sulfonate] | 117.6 ± 17.6 | 142.7 ± 17.3 | single species with no aggregation | did not produce any detectable fluorescent signal | 
CCCCn1c(=O)c2[nH]c(C34CCC(C(=O)NCCNC(=O)CCNC(=O)c5ccc(OC(=O)CCC(=O)NCCOCCOCCNC(=O)O[C@H]6CC/C=C/CCC6)c(F)c5)(CC3)CC4)nc2n(CCCC)c1=O [Compound 12, 4-((3-((2-(4-(1,3-Dibutyl-2,6-dioxo-2,3,6,7-tetrahydro-1H-purin-8-yl)bicyclo[2.2.2]octane-1-carboxamido)ethyl)amino)-3-oxopropyl)carbamoyl)-2-fluorophenyl (R,E)-1-(Cyclooct-4-en-1-yloxy)-1,12-dioxo-5,8-dioxa-2,11-diazapentadecan-15-oate] |  |  |  |  | 813
